Results as given in the CheMixHub viscosity set.
± gives the uncertainty stated by the source.

Assay: xn = mol fraction of the nth substance listed

COCCOCCOCCOCCOC + CO
viscosity [mPa·s], 100 kPa
Conditions	293.15 K	298.15 K	303.15 K
x2 = 0.0463	3.726 ± 0.15	3.3 ± 0.14	2.916 ± 0.12
x2 = 0.1031	3.616 ± 0.15	3.209 ± 0.13	2.845 ± 0.12
x2 = 0.1978	3.408 ± 0.14	3.036 ± 0.12	2.691 ± 0.11
x2 = 0.3111	3.132 ± 0.13	2.803 ± 0.12	2.493 ± 0.1
x2 = 0.3886	2.919 ± 0.12	2.611 ± 0.11	2.334 ± 0.096
x2 = 0.494	2.592 ± 0.11	2.326 ± 0.095	2.089 ± 0.085
x2 = 0.5935	2.25 ± 0.092	2.031 ± 0.083	1.829 ± 0.074
x2 = 0.6966	1.868 ± 0.076	1.696 ± 0.069	1.537 ± 0.062
x2 = 0.7966	1.467 ± 0.06	1.344 ± 0.055	1.225 ± 0.05
x2 = 0.8472	1.243 ± 0.051	1.145 ± 0.047	1.047 ± 0.043
x2 = 0.8972	1.024 ± 0.042	0.948 ± 0.039	0.871 ± 0.035
x2 = 0.9495	0.803 ± 0.033	0.744 ± 0.03	0.683 ± 0.028

Clc1cccc2ccccc12 + CO
viscosity [mPa·s], 101.33 kPa
Conditions	x1 = 0.0998	x1 = 0.1992	x1 = 0.302	x1 = 0.4003	x1 = 0.4961	x1 = 0.5978	x1 = 0.6961	x1 = 0.801	x1 = 0.8922
298.15 K	0.814 ± 0.012	1.096 ± 0.018	1.372 ± 0.027	1.617 ± 0.039	1.847 ± 0.052	2.064 ± 0.067	2.237 ± 0.082	2.454 ± 0.1	2.67 ± 0.12
303.15 K	0.75 ± 0.011	1.002 ± 0.017	1.249 ± 0.025	1.468 ± 0.035	1.672 ± 0.047	1.863 ± 0.06	2.012 ± 0.074	2.197 ± 0.092	2.385 ± 0.11
308.15 K	0.689 ± 0.01	0.918 ± 0.015	1.142 ± 0.023	1.336 ± 0.032	1.516 ± 0.042	1.683 ± 0.055	1.818 ± 0.067	1.984 ± 0.083	2.157 ± 0.099

COCCOCCOCCOCCOC + COC(=O)OC
298.15 K, 101.33 kPa
Conditions	viscosity [mPa·s]
x1 = 0.0013	0.595 ± 0.01
x1 = 0.0051	0.603 ± 0.01
x1 = 0.0117	0.623 ± 0.011
x1 = 0.0228	0.642 ± 0.011
x1 = 0.0349	0.673 ± 0.011
x1 = 0.0584	0.726 ± 0.012
x1 = 0.0861	0.792 ± 0.013
x1 = 0.1164	0.875 ± 0.014
x1 = 0.1595	0.994 ± 0.016
x1 = 0.2094	1.132 ± 0.018
x1 = 0.3042	1.414 ± 0.022
x1 = 0.3316	1.499 ± 0.023
x1 = 0.3593	1.576 ± 0.024
x1 = 0.3994	1.703 ± 0.026
x1 = 0.4379	1.815 ± 0.028
x1 = 0.477	1.945 ± 0.03
x1 = 0.5477	2.159 ± 0.033
x1 = 0.6174	2.382 ± 0.036
x1 = 0.6892	2.606 ± 0.04
x1 = 0.7492	2.781 ± 0.042
x1 = 0.7839	2.888 ± 0.044
x1 = 0.8643	3.113 ± 0.048
x1 = 0.9142	3.237 ± 0.05
x1 = 0.949	3.324 ± 0.051
x1 = 0.9732	3.369 ± 0.052

Clc1ccccc1 + COC(=O)OC
Conditions	viscosity [mPa·s]
298.15 K, 101 kPa, x2 = 0.238	0.7093 ± 0.0061

CCCC(C)C + COC(C)(C)C
298.15 K, 101.33 kPa
Conditions	viscosity [mPa·s]
x2 = 0.0969	0.2794 ± 0.003
x2 = 0.2016	0.2825 ± 0.003
x2 = 0.3021	0.2858 ± 0.0031
x2 = 0.4006	0.2902 ± 0.0031
x2 = 0.5007	0.2956 ± 0.0032
x2 = 0.5985	0.3014 ± 0.0033
x2 = 0.6965	0.3079 ± 0.0034
x2 = 0.7978	0.3154 ± 0.0035
x2 = 0.8845	0.3228 ± 0.0036

Clc1ccccc1 + COC(C)(C)C
viscosity [mPa·s], 101.33 kPa
Conditions	x2 = 0.0948	x2 = 0.1898	x2 = 0.2929	x2 = 0.3832	x2 = 0.4974	x2 = 0.6209	x2 = 0.7014	x2 = 0.8089	x2 = 0.9102
293.15 K	0.7752 ± 0.041	0.7379 ± 0.039	0.6754 ± 0.036	0.6443 ± 0.034	0.5825 ± 0.031	0.5368 ± 0.028	0.4905 ± 0.026	0.456 ± 0.024	0.4191 ± 0.022
298.15 K	0.7335 ± 0.039	0.6981 ± 0.037	0.6506 ± 0.034	0.6036 ± 0.032	0.5697 ± 0.03	0.5019 ± 0.027	0.4658 ± 0.025	0.4246 ± 0.023	0.3945 ± 0.021
